Values of other authors in patent US9220759B2, “Treatment of diabetic patients with a drug eluting stent and adjunctive therapy” (Abbott Cardiovascular Systems Inc., priority 2012, dated 2015).

System: restenosis after bare metal stent implantation
Conditions: diabetic patients prescribed the drug, compared to the control group, study of limited size

For `CN(CCOc1ccc(CC2SC(=O)NC2=O)cc1)c1ccccn1` (stereo not shown) [rosiglitzone, rosiglitazone], the rate of restenosis is listed as “reduction in the rate of restenosis”.
